SMILES strings stand for the structures. Structures can show the parent of a compound that is named as a salt.

The text below walks through data of US6875761B2 (Eisai Co., Ltd., priority 1997, dated 2005).

One test concerns the target T1, serotonin 2 receptor (Rattus norvegicus, UniProt P14842).
T1 construct: To the receptor fraction of the cerebral cortex were added a test compound and 0.3 nM of [^3H] ketanserin; from tissue; host or cells: rat cerebral cortex membrane fraction
The test can be described thus: Binding test on [3H] ketanserin, cerebral cortex receptor fraction. The arrangement: species or system SD rats. The following applies: 0.3 nM [3H] ketanserin, 37° C. 15 min, read-out: 5HT2.

The next test addresses T2, serotonin 1A receptor (Rattus norvegicus, UniProt P19327).
T2 construct: To the receptor fraction of the hippocampus were added a test compound and 0.5 nM of [^3H]; 8-hydroxy-dipropylaminotetralin; from tissue; host or cells: rat hippocampus membrane fraction
T2 sequence (P19327 1-422): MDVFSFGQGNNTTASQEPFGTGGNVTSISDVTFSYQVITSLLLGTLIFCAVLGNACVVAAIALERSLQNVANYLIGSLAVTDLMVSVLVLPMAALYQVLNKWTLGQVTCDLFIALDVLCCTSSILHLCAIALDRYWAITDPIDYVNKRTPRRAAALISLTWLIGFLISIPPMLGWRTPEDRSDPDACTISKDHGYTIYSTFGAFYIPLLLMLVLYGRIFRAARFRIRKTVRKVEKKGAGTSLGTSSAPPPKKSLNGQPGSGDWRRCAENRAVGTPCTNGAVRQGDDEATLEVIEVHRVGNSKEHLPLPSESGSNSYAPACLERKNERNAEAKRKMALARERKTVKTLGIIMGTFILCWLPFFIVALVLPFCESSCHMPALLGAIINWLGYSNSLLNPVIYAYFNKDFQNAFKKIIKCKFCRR
The test can be described thus: Binding test on [3H] 8-hydroxy-dipropylaminotetralin, hippocampus receptor fraction. The arrangement: species or system SD rats. The following applies: rat hippocampus receptor fraction, 0.5 nM [3H] 8-OH-DPAT, room temperature 30 min; read-out: 5HT1.

T1 sequence (P14842 whole entry): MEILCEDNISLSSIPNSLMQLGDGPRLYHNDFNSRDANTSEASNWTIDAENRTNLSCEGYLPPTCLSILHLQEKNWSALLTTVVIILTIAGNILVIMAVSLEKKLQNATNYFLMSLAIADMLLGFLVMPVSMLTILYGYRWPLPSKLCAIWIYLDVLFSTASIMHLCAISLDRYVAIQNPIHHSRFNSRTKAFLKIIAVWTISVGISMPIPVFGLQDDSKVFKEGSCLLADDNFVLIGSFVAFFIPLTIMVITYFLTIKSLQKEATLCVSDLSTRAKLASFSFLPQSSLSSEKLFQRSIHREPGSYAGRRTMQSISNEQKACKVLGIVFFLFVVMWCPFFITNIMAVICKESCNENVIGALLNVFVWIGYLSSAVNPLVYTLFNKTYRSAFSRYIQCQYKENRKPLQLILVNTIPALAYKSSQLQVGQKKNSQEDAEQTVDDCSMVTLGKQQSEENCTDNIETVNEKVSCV

As to `CCN1CCN(c2nc(-c3ccc(NC(C)=O)cc3)cc3ccccc23)CC1` [Example 68, 3-(4-Acetamidephenyl)-1-(4-Ethylpiperazin-1-Yl)Isoquinoline Hydrochloride], the Ki at serotonin 2 receptor came to 94.1 nM; on serotonin 1A receptor, 30.9 nM.
For `CCN1CCN(c2nc(/C=C(\C)c3ccccc3)cc3ccccc23)CC1` [Example 196, 1-(1-Ethylpiperazin-4-Yl)-3-(Trans-2-Methyl-2-Phenylethen-1-Yl)Isoquinoline Oxalate], in that order: 6.44 nM and 66.7 nM.
Taken in the same sequence, the figures for `CCC(=O)NCc1ccc(-c2cc3ccccc3c(N3CCN(CC)CC3)n2)cc1` [Example 85, 3-(4-Ethylcarbonylaminomethylphenyl)-1-(4-ethylpiperazin-1-yl)isoquinoline Hydrochloride] were 9.7 nM and 18.7 nM.
Taken in the same sequence, the figures for `CCN1CCN(c2nc(/C=C/c3ccc(OCCO)cc3)cc3ccccc23)CC1` [Example 198, 1-(1-Ethylpiperazin-4-Yl)-3-[(E)-4-(2-Hydroxyethoxy)Styryl]Isoquinoline Oxalate] were 9.08 nM and 45.5 nM.
For the compound `CCN1CCN(c2nc(-c3ccc(OCCO)c(F)c3)cc3ccccc23)CC1` [Example 369, 1-(4-ethylpiperazin-1-yl)-3-[3-fluoro-4-(2-hydroxyethoxy)phenyl]isoquinoline dihydrochloride], the Ki worked out at 2.5 nM at serotonin 2 receptor and 28.2 nM at serotonin 1A receptor.
In the case of `CCN1CCN(c2nc(CCc3cccc(OCCO)c3)cc3ccccc23)CC1` [Example 108, 1-(1-Ethylpiperazin-4-yl)-3-[3-(2-hydroxyethoxy)phenethyl]isoquinoline], the Ki on serotonin 2 receptor is 33.8 nM; at serotonin 1A receptor it was 157 nM.
Taken in the same sequence, the figures for `CCN1CCN(c2nc(-c3ccc(OCC(C)O)cc3)cc3cccnc23)CC1` (stereo in doubt) [Example 246, 8-(1-ethylpiperazin-4-yl)-6-{4-[(S)-2-hydroxypropoxy}phenyl]-1,7-naphthyridine Dihydrochloride] were 13.9 nM and 87 nM.
Taken in the same sequence, the figures for `CCN1CCN(c2nc(-c3ccc(CC(C)(C)O)cc3)cc3ccccc23)CC1` [Example 377, 1-(4-Ethylpiperazin-1-yl)-3-[4-(2-Hydroxy-2-Methylpropyl)Phenyl]Isoquinoline Oxalate] were 16.5 nM and 28.5 nM.
Turning to `CCN1CCN(c2nc(-c3ccc(CCCOC(C)C)nc3)cc3ccccc23)CC1` [Example 143, 1-(1-Ethylpiperazin-4-yl)-3-[2-[3-(2-Propoxy)Propyl]Pyridin-5-yl]Isoquinoline Oxalate], the Ki at serotonin 2 receptor turned out to be 17.4 nM; on serotonin 1A receptor it was 2.2 nM.
With `CCN1CCN(c2nc(-c3ccc4c(c3)CC(CO)CO4)cc3ccccc23)CC1` (centres unmarked) [Example 122, 3-(3-Hydroxymethylchroman-6-yl)-1-(4-Ethylpiperazin-1-yl)Isoquinoline Hydrochloride], the Ki came to 19.9 nM on serotonin 2 receptor and 40.1 nM at serotonin 1A receptor.
Taken in the same sequence, the figures for `CCN1CCN(c2nc(-c3ccc(S(=O)(=O)NCCOC)cc3)cc3ccccc23)CC1` [Example 354, 1-(4-ethylpiperazin-1-yl)-3-{4-[N-(2-methoxyethyl)sulfamoyl]phenyl}isoquinoline dihydrochloride] were 1.3 nM and 3 nM.
For `CCN1CCN(c2nc(-c3ccc(SC[C@@H](C)O)cc3)cc3ccsc23)CC1` [Example 444, 7-(4-ethylpiperazin-1-yl)-5-[4-(2-hydroxypropylthio)phenyl]thieno[2,3-c]pyridine dihydrochloride], in that order: 12 nM and 43.2 nM.
For `CCN1CCN(c2nc(-c3ccc(CCCOC)cc3)cc3ccccc23)CC1` [Example 333, 1-(4-ethylpiperazin-1-yl)-3-[4-(3-(methoxypropyl)phenyl]isoquinolinedihydrochloride], in that order: 6.1 nM and 17.1 nM.
With `CCN1CCN(c2nc(-c3ccc(CO)c(CO)c3)cc3ccccc23)CC1` [Example 394, 1-(4-Ethylpiperazin-1-yl)-3-[(3,4-Dihydroxymethyl)Phenyl]Isoquinoline Dihydrochloride], the Ki is 32.9 nM at serotonin 2 receptor and 10.7 nM at serotonin 1A receptor.
`CCN1CCN(c2nc(/C=C/c3cccc(OCCO)c3)cc3ccccc23)CC1` [Example 199, 1-(1-Ethylpiperazin-4-Yl)-3-(Trans-2-(3-(2-Hydroxyethoxy)Phenyl]Ethenyl]isoquinoline Oxalate]: the Ki on serotonin 2 receptor came to 3.8 nM; on serotonin 1A receptor, 3.27 nM.
With `CCCC(=O)NCc1ccc(-c2cc3ccccc3c(N3CCN(CC)CC3)n2)cc1` [Example 86, 3-(4-Propylcarbonylaminomethylphenyl)-1-(4-ethylpiperazin-1-yl)isoquinoline Hydrochloride], the Ki was 5.3 nM at serotonin 2 receptor and 11.7 nM on serotonin 1A receptor.
For `CCN1CCN(c2nc(-c3ccc(N4CCOCC4)nc3)cc3ccccc23)CC1` [Example 147, 1-(4-ethylpiperazin-1-yl)-3-[2-(morpholin-4-yl)pyridin-5-yl]isoquinoline trihydrochloride], in that order: 1.7 nM and 6.5 nM.
With `CCCCc1ccc(-c2cc3ccccc3c(N3CCN(CC)CC3)n2)cn1` [Example 131, 1-(1-Ethylpiperazin-4-yl)-3-(2-Butylpyridin-5-yl)Isoquinoline], the Ki at serotonin 2 receptor was 5.8 nM; on serotonin 1A receptor, 6.4 nM.
Taken in the same sequence, the figures for `CCN1CCN(c2nc(-c3ccc(OCCO)c(C#N)c3)cc3ccccc23)CC1` [Example 417, 1-(4-ethylpiperazin-1-yl)-3-[3-cyano-4-(2-hydroxyethoxy)phenyl]isoquinoline] were 4.5 nM and 13.4 nM.
Taken in the same sequence, the figures for `CCN1CCN(c2nc(-c3ccc([C@@H]4C[C@@H](O)CCO4)cc3)cc3ccccc23)CC1` (relative stereo) [Example 402, 1-(4-Ethylpiperazin-1-yl)-3-[4-(trans-4-Hydroxytetrahydropyran-2-yl)Phenyl]Isoquinoline Dihydrochloride] were 2.1 nM and 23.7 nM.
For `CCCC(O)c1ccc(-c2cc3sccc3c(N3CCN(CC)CC3)n2)cc1` (centres unmarked) [Example 283, 4-(4-ethylpiperazin-1-yl)-6-[4-1-hydroxybutyl)phenyl]thieno[3,2-c]pyridine oxalate], in that order: 6.43 nM and 5.71 nM.
With `CCN1CCN(c2nc(-c3ccc(CCO)s3)cc3ccccc23)CC1` [Example 163, 1-(1-ethylpiperazin-4-yl)-3-[2-(2-hydroxyethyl)thiophen-5-yl]isoquinoline dihydrochloride], the Ki was 19.2 nM at serotonin 2 receptor and 25.1 nM at serotonin 1A receptor.
As to `CCN1CCN(c2nc(-c3ccc(OCCCS(C)(=O)=O)cc3)cc3ccccc23)CC1` [Example 55, 3-[4-(3-Methylsulfonpropoxy)Phenyl]-1-(4-Ethylpiperazin-1-Yl)Isoquinoline Hydorchloride], the values for the Ki on serotonin 2 receptor and at serotonin 1A receptor were 15.3 nM and 10.4 nM, respectively.
In the case of `CCN1CCN(c2nc(-c3ccc(CCCCO)nc3)cc3ccccc23)CC1` [Example 137, 1-(1-Ethylpiperazin-4-yl)-3-[2-(4-Hydroxybutyl)Pyridin-5-yl]Isoquinoline], the Ki on serotonin 2 receptor amounted to 32.5 nM; on serotonin 1A receptor, 7.2 nM.
For `CCN1CCN(c2nc(-c3ccc(OCCO)c(C)c3)cc3ccccc23)CC1` [Example 40, 3-[3-methyl-4-(2-hydroxyethoxy)phenyl]-1-(4-ethylpiperazin-1-yl)isoquinoline hydrochloride], in that order: 3.1 nM and 26.7 nM.
Taken in the same sequence, the figures for `CCN1CCN(c2nc(-c3ccc(OC(F)(F)F)cc3)cc3ccccc23)CC1` [Example 339, 1-(4-ethylpiperazin-1-yl)-3-(4-trifluoromethoxyphenyl)isoquinoline dihydrochloride] were 18.9 nM and 214 nM.
Regarding `CCN1CCN(c2nc(-c3ccc(OCCO)nc3)cc3ccccc23)CC1` [Example 125, 1-(1-Ethylpiperazin-4-yl)-3-[2-(2-Hydroxyethoxy)Pyridin-5-yl]Isoquinoline], the Ki at serotonin 2 receptor was 6.9 nM; on serotonin 1A receptor, 27.1 nM.
On to `CCN1CCN(c2nc(-c3ccc(CS(C)(=O)=O)cc3)cc3ccccc23)CC1` [Example 90, 3-(4-Methylsulfonylmethylphenyl)-1-(4-ethylpiperazin-1-yl)isoquinoline Hydrochloride], for which the Ki turned out to be 12.9 nM on serotonin 2 receptor and 4.5 nM on serotonin 1A receptor.
As for `CCN1CCN(c2nc(-c3cccc(CCCO)c3)cc3ccccc23)CC1` [Example 418, 1-(4-ethylpiperazin-1-yl)-3-[3-(3-hydroxypropyl)phenyl]isoquinoline], the Ki on serotonin 2 receptor came out at 17.4 nM; on serotonin 1A receptor, 54.5 nM.
Turning to `CCN1CCN(c2nc(NS(=O)(=O)c3ccc(OC)cc3)cc3ccccc23)CC1` [Example 423, 1-(4-ethylpiperazin-1-yl)-3-(4-methoxybenzenesulfonamide)isoquinoline], the figures for the Ki at serotonin 2 receptor and on serotonin 1A receptor were 332 nM and 9.81 nM, respectively.
Taken in the same sequence, the figures for `CCN1CCN(c2nc(COc3ccc(OC)cc3)cc3ccccc23)CC1` [Example 424, 1-(4-ethylpiperazin-1-yl)-3-(4-methoxyphenoxymethyl)isoquinoline Hydrochloride] were 1.93 nM and 61.6 nM.
